# Laboratory results reported in patent publication US20120157422A1, “MARKER” (UCL BUSINESS PLC, priority 2009, published 2012).
# Columns and labels:
# [1] = test system: high risk women; conditions: versus placebo; cited from earlier work
# [2] = test system: women at increased risk of preterm delivery; conditions: whole PREMET study, fFN positive women, one week course; cited from earlier work
# [3] = test system: women at increased risk of preterm delivery; assay: PREMET subgroup providing saliva samples: metronidazole versus placebo; format: in vivo, human; conditions: 17 women on metronidazole vs 7 on placebo (36.4 weeks), p=0.73, no significant difference
# Description: A group of women at increased risk of preterm delivery participating in a study to assess the potential benefit of metronidazole in the prevention of preterm delivery (The PREMET study') provided saliva specimens from 24 weeks of gestation until 34 weeks or delivery in order to interrogate further the association between the steroid hormone profile and gestational age at delivery.
# In the PREMET study 892 women with singleton pregnancies, who had at least one risk factor for preterm delivery, were recruited between 23^+0 and 24^+6 weeks over a four and a half year period.^1 Eligibility included singleton pregnancy with a history of preterm birth or preterm prelabour rupture of the membranes before 37 completed weeks of gestation, previous late miscarriage, uterine anatomical abnormality, cervical surgery prior to the index pregnancy or current cervical cerclage. Women were screened for cervico-vaginal fetal fibronectin (fFN) at 24 and 27 weeks gestation. Those who were fFN positive (≧50 ng/mL) were randomised to receive a one week course of metronidazole or placebo.
# Weekly saliva samples, provided from 24 weeks of gestation until 34 weeks or delivery, were analysed for saliva E3 and progesterone by radioimmunoassay as previously described.^3 Briefly, aliquots (100 μL) of saliva were mixed with 50 μL sodium carbonate solution pH 10.5 and extracted with 10 volumes of diethyl ether. […]
SMILES,benefit of the intervention [1],preterm delivery associated with treatment [2],gestational age at delivery [3] [weeks]
CCCCCC(=O)O[C@]1(C(C)=O)CC[C@H]2[C@@H]3CCC4=CC(=O)CC[C@]4(C)[C@H]3CC[C@@]21C [17α hydroxyprogesterone caproate],significant benefit,,
Cc1ncc([N+](=O)[O-])n1CCO [metronidazole],,small but significant increase,35.6
